Test results published in patent publication US20100196357A1, “Microrna modulators and method for identifying and using the same” (priority 2008, published 2010).

Tested on: miR-21
Assay: high throughput screen for compounds that modulate miR-21
Type: cell-based
Conditions: Homo sapiens; Tables 4-12
Source text: This example describes a high throughput screening assay to identify small organic molecules that perturb the miRNA process. These active small molecules can be used as novel chemical tools to better understand miRNA functions and the molecular mechanisms of miRNA biogenesis. Moreover, miRNA inhibitors can be potentially developed into new therapeutics, including anticancer and antiviral agents. The high throughput assay is composed of a two-stage screening protocol, including of a primary screen to identify potential lead compounds from small molecule collections, and a secondary screen to evaluate and characterize the primary actives and to obtain a detailed structure-activity relationship (SAR).
Primary miR-21 Assay. The primary miR-21 FLuc reporter assay is carried out with HeLa cells expressing the Luc-miR-21 reporter using a 48-hour incubation time. Active compounds that increase the luciferase response are identified based upon inhibition of miR-21.
SAR. The concentration-response data for the entire high throughput screen is plotted and modeled by a four parameter logistic fit and SAR analysis is performed according to conventional approaches (Iglese, et al. (2006) Proc. Natl. Acad. Sci. USA 130:11473-8). In brief, Class 1.1 and 1.2 are full curves containing upper and lower asymptotes with efficacy ≧80% and <80%, respectively. […]

SMILES	AC50
C/C(=N\NC(=O)c1cccs1)c1ccncc1	7.36 µM
COc1ccc2c(c1)CC(C)C/C2=N\NC(=O)c1ccco1 (centres unmarked)	16.5 µM
